Reference: ChEMBL document CHEMBL1201862, “PubChem BioAssay data set” (2004)
Active and inactive are the calls of the source.

Experiments:
Format in all cases: functional
[1] = target: Vascular endothelial growth factor receptor 2 (Homo sapiens, UniProt P35968)
[2] = target: Glycogen synthase kinase-3 alpha (Homo sapiens, UniProt P49840);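 further: GSK3A result taken from a broad kinome-wide kinase panel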
[3] = target: Fibroblast growth factor receptor 1 (Homo sapiens, UniProt P11362)
Aurora kinase B = Aurora kinase B (Homo sapiens, UniProt Q96GD4)
[4] = target: Macrophage colony-stimulating factor 1 receptor (Homo sapiens, UniProt P07333);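 further: value comes from the Navigating the Kinome screening panel, CSF1R member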
[5] = target: Cyclin-dependent kinase 2 (Homo sapiens, UniProt P24941);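 further: CDK2 measured as one member of a broad kinome profiling panel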
[6] = target: Ribosomal protein S6 kinase alpha-3 (Homo sapiens, UniProt P51812);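 further: measured within a kinome-wide profiling panel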
[7] = target: BDNF/NT-3 growth factors receptor (Homo sapiens, UniProt Q16620);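 further: NTRK2 measured as one member of a broad kinome-wide kinase profiling panel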
[8] = target: Mitogen-activated protein kinase 9 (Homo sapiens, UniProt P45984);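 further: value from a kinome panel profiling assay, MAPK9 panel entry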
[9] = target: Mast/stem cell growth factor receptor Kit (Homo sapiens, UniProt P10721);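 further: KIT entry within a kinase panel assay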
[10] = target: Tyrosine-protein kinase ABL1 (Homo sapiens, UniProt P00519)
[11] = target: Serine/threonine-protein kinase 3 (Homo sapiens, UniProt Q13188);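 further: measured as one member of a kinome-wide kinase panel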
[12] = target: Vascular endothelial growth factor receptor 1 (Homo sapiens, UniProt P17948);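 further: measured within a kinome-wide profiling panel, FLT1 as the panel member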
[13] = target: Tyrosine-protein kinase JAK3 (Homo sapiens, UniProt P52333)
[14] = target: Vascular endothelial growth factor receptor 3 (Homo sapiens, UniProt P35916);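 further: value from a kinome-wide profiling panel, with FLT4 as the panel member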
[15] = target: Tyrosine-protein kinase JAK2 (Homo sapiens, UniProt O60674);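 further: JAK2 tested as one member of a kinase panel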
[16] = target: 5'-AMP-activated protein kinase catalytic subunit alpha-1 (Homo sapiens, UniProt Q13131)
[17] = target: Glycogen synthase kinase-3 beta (Homo sapiens, UniProt P49841);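 further: value comes from a broad kinome profiling panel, with GSK3B as the panel member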
Aurora kinase A = Aurora kinase A (Homo sapiens, UniProt O14965);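 further: value from the Navigating the Kinome kinase panel profiling, panel entry STK6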
[18] = target: Mitogen-activated protein kinase 8 (Homo sapiens, UniProt P45983);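 further: value comes from one member of a kinome-wide kinase profiling panel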
[19] = target: T1, Receptor-type tyrosine-protein kinase FLT3 (Homo sapiens, UniProt P36888);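 further: FLT3 was tested as one member of a kinome-wide kinase panel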
T1 sequence (P36888 whole entry): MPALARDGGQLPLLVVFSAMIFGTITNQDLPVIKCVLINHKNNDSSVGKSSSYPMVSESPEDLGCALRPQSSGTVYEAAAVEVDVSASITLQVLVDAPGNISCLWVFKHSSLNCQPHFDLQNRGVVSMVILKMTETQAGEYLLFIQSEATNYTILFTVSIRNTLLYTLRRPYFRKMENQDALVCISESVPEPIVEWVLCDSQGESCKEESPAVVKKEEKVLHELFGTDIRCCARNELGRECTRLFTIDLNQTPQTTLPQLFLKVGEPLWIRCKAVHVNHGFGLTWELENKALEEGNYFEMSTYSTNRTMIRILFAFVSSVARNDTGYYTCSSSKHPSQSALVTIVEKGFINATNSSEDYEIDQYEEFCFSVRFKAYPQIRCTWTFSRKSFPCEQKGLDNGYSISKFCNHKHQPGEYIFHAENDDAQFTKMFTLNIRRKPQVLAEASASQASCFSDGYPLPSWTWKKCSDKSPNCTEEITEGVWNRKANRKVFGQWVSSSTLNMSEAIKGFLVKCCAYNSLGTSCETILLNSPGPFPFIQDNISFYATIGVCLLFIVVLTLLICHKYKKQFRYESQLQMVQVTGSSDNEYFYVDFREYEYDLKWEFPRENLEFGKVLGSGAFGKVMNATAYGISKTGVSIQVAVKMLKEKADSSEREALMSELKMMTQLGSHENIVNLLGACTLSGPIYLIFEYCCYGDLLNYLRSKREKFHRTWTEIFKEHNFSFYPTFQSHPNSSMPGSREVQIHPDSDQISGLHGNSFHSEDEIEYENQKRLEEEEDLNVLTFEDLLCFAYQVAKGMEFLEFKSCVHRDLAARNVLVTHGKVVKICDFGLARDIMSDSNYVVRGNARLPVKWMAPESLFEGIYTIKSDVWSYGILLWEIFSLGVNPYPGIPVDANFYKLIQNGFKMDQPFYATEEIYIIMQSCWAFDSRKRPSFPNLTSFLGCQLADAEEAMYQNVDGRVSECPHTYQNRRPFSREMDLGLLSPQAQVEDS

[20] = target: Insulin-like growth factor 1 receptor (Homo sapiens, UniProt P08069); test: Navigating the Kinome. Panel member name: IGF1R
[21] = target: Serine/threonine-protein kinase pim-1 (Homo sapiens, UniProt P11309)
[22] = target: cAMP-dependent protein kinase catalytic subunit alpha (Homo sapiens, UniProt P17612)
[23] = target: Dual specificity tyrosine-phosphorylation-regulated kinase 1A (Homo sapiens, UniProt Q13627);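 further: measured against DYRK1A as one member of a broad kinome profiling panel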
[24] = target: Tyrosine-protein kinase Fyn (Homo sapiens, UniProt P06241)
[25] = target: Serine/threonine-protein kinase PAK 4 (Homo sapiens, UniProt O96013);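 further: value obtained within a kinome profiling panel in which PAK4 was one of the panel members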
[26] = target: Rho-associated protein kinase 1 (Homo sapiens, UniProt Q13464);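 further: measured within a broad kinome-wide panel profiling many kinases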
[27] = target: Death-associated protein kinase 3 (Homo sapiens, UniProt O43293);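 further: measured as one member of a kinome-wide profiling panel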
[28] = target: High affinity nerve growth factor receptor (Homo sapiens, UniProt P04629);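 further: NTRK1 tested as one member of a kinome-wide profiling panel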
[29] = target: Serine/threonine-protein kinase PLK4 (Homo sapiens, UniProt O00444);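 further: PLK4 measured as one member of a kinome-wide kinase profiling panel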
[30] = target: Leucine-rich repeat serine/threonine-protein kinase 2 (Homo sapiens, UniProt Q5S007);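 further: value from a broad kinome-wide panel profiling study in which LRRK2 was one of the kinases tested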
[31] = target: Dual specificity tyrosine-phosphorylation-regulated kinase 1B (Homo sapiens, UniProt Q9Y463); test: Navigating the Kinome. Panel member name: DYRK1B

Fibroblast growth factor receptor 1, sequence (P11362 whole entry): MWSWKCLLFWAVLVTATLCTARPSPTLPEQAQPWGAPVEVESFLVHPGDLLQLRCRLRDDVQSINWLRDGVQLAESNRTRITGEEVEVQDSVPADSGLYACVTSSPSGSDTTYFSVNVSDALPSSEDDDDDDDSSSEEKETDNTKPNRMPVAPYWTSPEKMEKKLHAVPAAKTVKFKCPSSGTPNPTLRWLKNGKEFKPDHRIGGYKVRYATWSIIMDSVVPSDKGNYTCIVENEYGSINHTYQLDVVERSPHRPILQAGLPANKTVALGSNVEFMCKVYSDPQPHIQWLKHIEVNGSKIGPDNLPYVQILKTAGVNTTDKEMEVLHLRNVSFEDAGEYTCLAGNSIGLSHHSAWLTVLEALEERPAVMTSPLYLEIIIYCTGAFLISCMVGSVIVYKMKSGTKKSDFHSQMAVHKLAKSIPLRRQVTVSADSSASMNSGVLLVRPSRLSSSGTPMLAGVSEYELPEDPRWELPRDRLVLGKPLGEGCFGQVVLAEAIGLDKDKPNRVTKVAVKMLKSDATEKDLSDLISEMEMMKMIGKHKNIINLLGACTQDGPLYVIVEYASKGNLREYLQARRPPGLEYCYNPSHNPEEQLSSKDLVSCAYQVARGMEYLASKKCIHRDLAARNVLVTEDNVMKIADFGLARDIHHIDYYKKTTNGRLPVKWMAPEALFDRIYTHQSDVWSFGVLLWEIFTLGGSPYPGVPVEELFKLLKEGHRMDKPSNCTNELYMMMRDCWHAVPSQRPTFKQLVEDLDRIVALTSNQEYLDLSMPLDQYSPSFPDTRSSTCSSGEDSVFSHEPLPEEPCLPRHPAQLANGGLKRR
Aurora kinase A, sequence (O14965 whole entry): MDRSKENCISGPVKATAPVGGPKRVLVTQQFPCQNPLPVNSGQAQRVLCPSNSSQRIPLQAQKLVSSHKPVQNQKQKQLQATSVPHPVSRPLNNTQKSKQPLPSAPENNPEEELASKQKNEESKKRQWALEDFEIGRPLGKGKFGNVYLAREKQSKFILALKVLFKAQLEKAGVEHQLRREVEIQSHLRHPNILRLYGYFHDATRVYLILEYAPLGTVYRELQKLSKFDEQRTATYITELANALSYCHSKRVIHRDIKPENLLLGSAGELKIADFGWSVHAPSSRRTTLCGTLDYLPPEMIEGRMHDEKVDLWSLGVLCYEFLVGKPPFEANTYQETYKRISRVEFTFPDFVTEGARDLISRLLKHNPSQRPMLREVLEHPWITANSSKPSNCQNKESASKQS
Insulin-like growth factor 1 receptor, sequence (P08069 31-736 limits assumed): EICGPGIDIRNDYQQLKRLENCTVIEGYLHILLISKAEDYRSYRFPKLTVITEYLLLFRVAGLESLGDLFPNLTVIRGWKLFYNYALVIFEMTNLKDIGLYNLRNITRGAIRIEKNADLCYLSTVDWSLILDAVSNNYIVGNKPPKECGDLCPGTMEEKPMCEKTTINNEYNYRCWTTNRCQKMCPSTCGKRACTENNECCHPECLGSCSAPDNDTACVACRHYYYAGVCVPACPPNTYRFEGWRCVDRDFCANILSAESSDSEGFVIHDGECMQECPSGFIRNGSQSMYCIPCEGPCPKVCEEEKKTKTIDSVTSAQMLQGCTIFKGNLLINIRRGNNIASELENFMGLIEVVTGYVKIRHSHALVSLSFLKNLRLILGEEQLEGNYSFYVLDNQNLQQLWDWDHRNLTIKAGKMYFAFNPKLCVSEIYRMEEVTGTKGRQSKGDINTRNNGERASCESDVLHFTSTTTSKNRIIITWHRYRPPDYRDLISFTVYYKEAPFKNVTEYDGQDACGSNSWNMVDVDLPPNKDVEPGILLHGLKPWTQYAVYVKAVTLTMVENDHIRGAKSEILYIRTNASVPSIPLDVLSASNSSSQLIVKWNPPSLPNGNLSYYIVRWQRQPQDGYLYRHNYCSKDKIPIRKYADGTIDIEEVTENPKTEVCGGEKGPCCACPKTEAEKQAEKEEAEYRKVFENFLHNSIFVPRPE
Insulin-like growth factor 1 receptor, sequence (P08069 741-1367 limits assumed): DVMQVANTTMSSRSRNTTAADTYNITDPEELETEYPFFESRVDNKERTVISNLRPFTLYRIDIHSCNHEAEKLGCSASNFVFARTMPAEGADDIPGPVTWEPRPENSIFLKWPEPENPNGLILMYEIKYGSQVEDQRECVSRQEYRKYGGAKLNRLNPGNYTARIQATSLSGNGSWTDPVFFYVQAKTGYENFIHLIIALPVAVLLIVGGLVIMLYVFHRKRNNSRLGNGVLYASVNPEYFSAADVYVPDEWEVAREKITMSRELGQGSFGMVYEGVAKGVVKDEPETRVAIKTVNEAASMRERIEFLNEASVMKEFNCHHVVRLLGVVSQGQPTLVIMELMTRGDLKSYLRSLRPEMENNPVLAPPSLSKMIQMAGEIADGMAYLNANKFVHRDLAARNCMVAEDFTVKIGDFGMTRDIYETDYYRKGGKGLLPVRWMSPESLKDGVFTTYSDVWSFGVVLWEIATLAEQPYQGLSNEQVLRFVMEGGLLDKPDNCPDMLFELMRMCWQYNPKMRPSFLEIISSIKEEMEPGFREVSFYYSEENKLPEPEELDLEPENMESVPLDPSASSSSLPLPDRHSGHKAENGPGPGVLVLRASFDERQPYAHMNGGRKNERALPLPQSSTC
Tyrosine-protein kinase ABL1, sequence (P00519 whole entry): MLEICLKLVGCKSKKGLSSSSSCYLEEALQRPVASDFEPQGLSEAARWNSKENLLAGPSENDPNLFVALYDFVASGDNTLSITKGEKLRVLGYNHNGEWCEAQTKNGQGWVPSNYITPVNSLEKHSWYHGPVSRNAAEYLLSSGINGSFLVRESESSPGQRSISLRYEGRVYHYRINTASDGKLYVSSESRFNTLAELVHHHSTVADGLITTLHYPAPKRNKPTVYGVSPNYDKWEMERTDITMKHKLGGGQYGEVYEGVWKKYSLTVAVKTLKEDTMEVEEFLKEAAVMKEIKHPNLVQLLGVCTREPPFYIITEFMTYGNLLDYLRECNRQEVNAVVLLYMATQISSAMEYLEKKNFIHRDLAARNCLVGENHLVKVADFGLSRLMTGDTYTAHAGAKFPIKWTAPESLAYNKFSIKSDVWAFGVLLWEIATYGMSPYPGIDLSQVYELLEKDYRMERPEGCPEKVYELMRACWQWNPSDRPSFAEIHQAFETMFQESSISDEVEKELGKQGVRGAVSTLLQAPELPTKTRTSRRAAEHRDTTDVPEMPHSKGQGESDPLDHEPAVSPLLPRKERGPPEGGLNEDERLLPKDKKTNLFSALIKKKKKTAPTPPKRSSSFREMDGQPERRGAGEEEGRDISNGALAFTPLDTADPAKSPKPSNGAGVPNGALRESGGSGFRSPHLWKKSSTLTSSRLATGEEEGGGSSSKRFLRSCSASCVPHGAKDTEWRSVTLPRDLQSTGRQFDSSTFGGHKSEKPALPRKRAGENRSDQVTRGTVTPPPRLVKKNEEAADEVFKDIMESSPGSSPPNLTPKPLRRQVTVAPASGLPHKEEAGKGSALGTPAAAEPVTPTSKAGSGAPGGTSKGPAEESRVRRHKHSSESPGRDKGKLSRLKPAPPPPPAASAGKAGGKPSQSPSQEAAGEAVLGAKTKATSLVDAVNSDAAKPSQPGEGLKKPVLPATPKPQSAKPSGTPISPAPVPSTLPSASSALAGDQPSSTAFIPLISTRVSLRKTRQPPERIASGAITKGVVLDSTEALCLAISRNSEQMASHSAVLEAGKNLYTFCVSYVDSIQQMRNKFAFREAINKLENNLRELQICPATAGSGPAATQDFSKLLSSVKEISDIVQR
Glycogen synthase kinase-3 beta, sequence (P49841 whole entry): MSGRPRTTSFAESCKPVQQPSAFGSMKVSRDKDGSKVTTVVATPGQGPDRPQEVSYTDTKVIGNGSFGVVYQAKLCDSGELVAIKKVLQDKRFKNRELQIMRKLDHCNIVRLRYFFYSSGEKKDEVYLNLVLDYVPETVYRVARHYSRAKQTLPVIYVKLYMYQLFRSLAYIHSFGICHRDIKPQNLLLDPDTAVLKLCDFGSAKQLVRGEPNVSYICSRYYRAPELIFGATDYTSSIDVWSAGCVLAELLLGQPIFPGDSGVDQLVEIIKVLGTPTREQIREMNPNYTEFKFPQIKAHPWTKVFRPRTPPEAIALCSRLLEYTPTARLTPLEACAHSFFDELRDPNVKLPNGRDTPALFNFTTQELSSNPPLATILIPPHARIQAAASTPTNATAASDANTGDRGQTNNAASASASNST
Aurora kinase B, sequence (Q96GD4 whole entry): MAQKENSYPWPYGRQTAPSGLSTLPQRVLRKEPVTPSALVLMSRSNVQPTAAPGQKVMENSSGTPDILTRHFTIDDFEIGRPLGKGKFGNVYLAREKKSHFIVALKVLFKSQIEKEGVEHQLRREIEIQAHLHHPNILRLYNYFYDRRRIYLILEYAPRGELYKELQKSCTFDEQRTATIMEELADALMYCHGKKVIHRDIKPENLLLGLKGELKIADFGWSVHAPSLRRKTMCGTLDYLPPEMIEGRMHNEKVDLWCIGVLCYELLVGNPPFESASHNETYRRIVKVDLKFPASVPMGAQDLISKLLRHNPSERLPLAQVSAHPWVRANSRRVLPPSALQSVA
Serine/threonine-protein kinase pim-1, sequence (P11309 whole entry): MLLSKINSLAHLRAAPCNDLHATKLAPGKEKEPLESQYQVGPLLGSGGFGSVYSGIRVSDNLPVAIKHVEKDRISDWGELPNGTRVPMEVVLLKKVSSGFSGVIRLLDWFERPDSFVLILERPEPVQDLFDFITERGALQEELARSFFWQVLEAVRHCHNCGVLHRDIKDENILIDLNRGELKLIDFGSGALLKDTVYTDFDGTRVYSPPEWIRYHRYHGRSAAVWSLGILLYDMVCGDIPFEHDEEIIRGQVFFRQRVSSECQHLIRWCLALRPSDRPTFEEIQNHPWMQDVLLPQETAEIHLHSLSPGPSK

SMILES	Ki [1]	Ki [2]	Ki [3]	Ki (Aurora kinase B)	Ki [4]	Ki [6]	Ki [7]	Ki [8]	Ki [9]	Ki [10]	Ki [11]	Ki [12]	Ki [13]	Ki [15]	Ki [16]	Ki [17]	Ki (Aurora kinase A)	Ki [18]	Ki [19]	Ki [20]	further results
NC(COc1cncc(-c2cc3ccncc3s2)c1)Cc1c[nH]c2ccccc12 (stereo unspecified)	794 nM (active)	25.1 nM (active)	2510 nM (active)	794 nM (active)	> 2510 nM (inactive)	25.1 nM (active)	> 5010 nM (inactive)	> 3980 nM (inactive)	631 nM (active)	> 631 nM (inactive)	794 nM (active)	316 nM (active)	> 1580 nM (inactive)	1000 nM (active)	316 nM (active)	12.6 nM (active)	> 6310 nM (inactive)	2510 nM (active)	251 nM (active)	> 1000 nM (inactive)	Ki [5]: 158 nM (active); Ki [14]: 100 nM (active); Ki [21]: 79.4 nM (active); Ki [22]: 10 nM (active); Ki [23]: 3.98 nM (active); Ki [24]: > 794 nM (inactive); Ki [25]: 5010 nM (active); Ki [26]: 20 nM (active); Ki [27]: 63.1 nM (active); Ki [28]: > 2510 nM (inactive); Ki [29]: 631 nM (active)
CN(C)C1CCC(Nc2nc(Cl)cc(-c3c[nH]c4ncccc34)n2)CC1 (stereo unspecified)	1260 nM (active)	794 nM (active)	> 3980 nM (inactive)	794 nM (active)	501 nM (active)	63.1 nM (active)	1580 nM (active)	> 3980 nM (inactive)	> 3980 nM (inactive)	> 3980 nM (inactive)	79.4 nM (active)	> 3980 nM (inactive)	1580 nM (active)	1260 nM (active)	79.4 nM (active)	1580 nM (active)	> 1580 nM (inactive)	1000 nM (active)	1580 nM (active)	> 2510 nM (inactive)	Ki [30]: 15.8 nM (active); Ki [21]: 251 nM (active); Ki [22]: 25.1 nM (active); Ki [23]: 39.8 nM (active); Ki [31]: 25.1 nM (active); Ki [24]: > 6310 nM (inactive); Ki [25]: 50.1 nM (active); Ki [26]: 1.26 nM (active); Ki [27]: 63.1 nM (active); Ki [28]: > 3160 nM (inactive)
